SMILES strings stand for the structures.

On to `Cc1cccc(CC(=O)NNC(=S)NC(=O)Cc2ccccc2)c1` [LW-25, 2-Phenyl-N—[N′-(2-m-tolyl-acetyl)-hydrazinocarbothioyl]-acetamide], for which the melting point (as a rule, the temperature, or range, at which the solid turns liquid) was 149 to 150 °C. In turn, `COc1cccc(CC(=O)NNC(=S)NC(=O)/C=C/c2cc(Br)cc(Br)c2)c1` [LW-26, 3-(3,5-Dibromo-phenyl)-N-{N′-[2-(3-methoxy-phenyl)-acetyl]-hydrazinocarbothioyl}-acrylamide] registered a melting point of 202 to 203 °C. Turning to `O=C(Cc1c(F)cccc1F)NNC(=S)NC(=O)Cc1ccccc1` [LW-28, N-{N′-[2-(2,6-Difluoro-phenyl)-acetyl]-hydrazinocarbothioyl}-2-phenyl-acetamide], the melting point was 174 to 175 °C.

The molecule `O=C(Cc1cc(F)cc(F)c1)NNC(=S)NC(=O)Cc1ccccc1` [LW-29, N-{N′-[2-(3,5-Difluoro-phenyl)-acetyl]-hydrazinocarbothioyl}-2-phenyl-acetamide] displayed a melting point of 178 to 179 °C. With `O=C(CCc1ccccc1)NNC(=S)NC(=O)Cc1ccccc1` [LW-30, 2-Phenyl-N—[N′-(3-phenyl-propionyl)-hydrazinocarbothioyl]-acetamide], the melting point was in the range of 88 to 90 °C. Molecule `O=C(/C=C/c1cc(Br)cc(Br)c1)NC(=S)NNC(=O)CCc1ccccc1` [LW-31, 3-(3,5-Dibromo-phenyl)-N—[N′-(3-phenyl-propionyl)-hydrazinocarbothioyl]acrylamide] registered a melting point of 213 to 214 °C. Turning to `O=C(Cc1ccc(F)cc1)NNC(=S)NC(=O)Cc1ccc(F)cc1` [LW-32, 2-(4-Fluoro-phenyl)-N-{N′-[2-(4-fluoro-phenyl)-acetyl]-hydrazinocarbothioyl}-acetamide], the melting point is 178 to 179 °C. `O=C(Cc1ccc(F)cc1)NNC(=S)NC(=O)Cc1c(F)cccc1F` [LW-33, 2-(2,6-Difluoro-phenyl)-N-{N′-[2-(4-fluoro-phenyl)-acetyl]-hydrazinocarbothioyl}-acetamide] gave a melting point of 186 to 187 °C.

The molecule `O=C(Cc1ccc(F)cc1)NNC(=S)NC(=O)CC1CCCCC1` [LW-34, 2-Cyclohexyl-N-{N′-[2-(4-fluoro-phenyl)-acetyl]-hydrazinocarbothioyl}-acetamide] registered a melting point of 132 to 133 °C. `COc1ccc(NC(=O)CNC(=O)COc2ccccc2)c(C)c1` [MM-1, N-[(4-methoxy-2-methylphenylcarbamoyl)methyl]-2-phenoxyacetamide] came in with a melting point of 165 to 166 °C. The figure for `COc1ccc(NC(=O)CNC(=O)COc2ccc(Cl)cc2)c(C)c1` [MM-2, 2-(4-Chloro-phenoxy)-N-[(4-methoxy-2-methyl-phenylcarbamoyl)-methyl]-acetamide] is 170 to 171 °C; for `COc1ccc(NC(=O)CNC(=O)COc2ccc(Br)cc2)c(C)c1` [MM-3, 2-(4-Bromo-phenoxy)-N-[(4-methoxy-2-methyl-phenylcarbamoyl)-methyl]-acetamide] it is 159 to 160 °C; for `O=C(COc1ccc(Cl)cc1)NCC(=O)Nc1ccc(I)cc1` [MM-4, 2-(4-Chloro-phenoxy)-N-[(4-iodo-phenylcarbamoyl)-methyl]-acetamide] it is 205 to 206 °C. `O=C(COc1ccc(Br)cc1)NCC(=O)Nc1ccc(I)cc1` [MM-5, 2-(4-Bromo-phenoxy)-N-[(4-iodo-phenylcarbamoyl)-methyl]acetamide] returned a melting point of 211 to 212 °C. As for `COc1ccc(NC(=O)CNC(=O)COc2ccc(F)cc2)c(C)c1` [MM-6, 2-(4-Fluoro-phenoxy)-N-[(4-methoxy-2-methyl-phenylcarbamoyl)-methyl]-acetamide], the melting point was in the range of 169 to 170 °C. `O=C(COc1ccc(F)cc1)NCC(=O)Nc1ccc(I)cc1` [MM-7, 2-(4-Fluoro-phenoxy)-N-[(4-iodo-phenylcarbamoyl)-methyl]-acetamide] registered a melting point of 190 to 191 °C. For `O=C(COc1ccc(Br)cc1)NCC(=O)Nc1ccc(F)cc1` [MM-8, 2-(4-Bromo-phenoxy)-N-[(4-fluoro-phenylcarbamoyl)-methyl]-acetamide], the melting point fell in the range of 213 to 214 °C. Molecule `O=C(COc1ccc(F)cc1)NCC(=O)Nc1ccc(F)cc1` [MM-9, 2-(4-Fluoro-phenoxy)-N-[(4-fluoro-phenylcarbamoyl)-methyl]-acetamide] showed a melting point of 202 to 203 °C.

`O=C(COc1ccc(F)cc1)NCC(=O)Nc1ccc(Br)cc1` [MM-10, N-[(4-Bromo-phenylcarbamoyl)-methyl]-2-(4-fluoro-phenoxy)-acetamide] had a melting point of 192 to 193 °C. `COc1ccc(NC(=O)CNC(=O)COc2ccc(Br)cc2)cc1` [MM-11, 2-(4-Bromo-phenoxy)-N-[(4-methoxy-phenylcarbamoyl)-methyl]acetamide]: the melting point fell in the range of 190 to 191 °C. Take `COc1ccc(NC(=O)CNC(=O)COc2ccc(F)cc2)cc1` [MM-12, 2-(4-Fluoro-phenoxy)-N-[(4-methoxy-phenylcarbamoyl)-methyl]-acetamide]: the melting point was 185 to 186 °C. Regarding `O=C(COc1ccc(F)cc1)NCC(=O)NC1CCCCC1` [MM-14, N-Cyclohexylcarbamoylmethyl-2-(4-fluoro-phenoxy)-acetamide], the melting point fell in the range of 184 to 185 °C. The figure for `O=C(COc1ccc(Br)cc1)NCC(=O)Nc1c(F)cccc1F` [MM-15, 2-(4-Bromo-phenoxy)-N-[(2,6-difluoro-phenylcarbamoyl)-methyl]-acetamide] is 173 to 174 °C. The figure for `O=C(CNC(=O)COc1ccc(Br)cc1)NCc1ccccc1` [MM-16, N-(Benzylcarbamoyl-methyl)-2-(4-bromo-phenoxy)-acetamide] is 195 to 196 °C.

The molecule `O=C(CNC(=O)COc1ccc(F)cc1)NCc1ccccc1` [MM-17, N-(Benzylcarbamoyl-methyl)-2-(4-fluoro-phenoxy)-acetamide] registered a melting point of 165 to 166 °C.

For the molecule `COc1ccc(OCC(=O)NCC(=O)Nc2ccc(OC)cc2C)cc1` [MM-18, N-[(4-Methoxy-2-methyl-phenylcarbamoyl)-methyl]-2-(4-methoxy-phenoxy)-acetamide], the melting point lay in the range of 143 to 144 °C. `COc1cccc(OCC(=O)NCC(=O)Nc2ccc(OC)cc2C)c1` [MM-19, N-[(4-Methoxy-2-methyl-phenylcarbamoyl)-methyl]-2-(3-methoxy-phenoxy)-acetamide] had a melting point of 115 to 116 °C. Take `O=C(COc1ccc(Cl)cc1)NCC(=O)Nc1c(F)cccc1F` [MM-20, 2-(4-Chloro-phenoxy)-N-[(2,6-difluoro-phenylcarbamoyl)-methyl]acetamide]: the melting point is 184 to 185 °C. The figure for `O=C(COc1ccc(Oc2ccccc2)cc1)NCC(=O)Nc1c(F)cccc1F` [MM-21, N-[(2,6-Difluoro-phenylcarbamoyl)-methyl]-2-(4-phenoxy-phenoxy)-acetamide] is 164 to 165 °C; for `Cc1cccc(OCC(=O)NCC(=O)Nc2c(F)cccc2F)c1` [MM-22, N-[(2,6-Difluoro-phenylcarbamoyl)-methyl]-2-m-tolyloxy-acetamide] it is 161 to 162 °C; for `COc1ccc(OCC(=O)NCC(=O)Nc2c(F)cccc2F)cc1` [MM-23, N-[(2,6-Difluoro-phenylcarbamoyl)-methyl]-2-(4-methoxy-phenoxy)-acetamide] it is 164 to 165 °C. The figure for `O=C(COc1ccc(F)cc1)NCC(=O)Nc1c(F)cccc1F` [MM-24, N-[(2,6-Difluoro-phenylcarbamoyl)-methyl]-2-(4-fluoro-phenoxy)-acetamide] is 194 to 195 °C. Take `O=C(COc1ccc(Br)cc1)NCC(=S)Nc1c(F)cccc1F` [MM-25, 2-(4-Bromo-phenoxy)-N-[(2,6-difluoro-phenylthiocarbamoyl)-methyl]-acetamide]: the melting point lay in the range of 174 to 175 °C. The figure for `COc1ccc(OCC(=O)NCC(=S)Nc2c(F)cccc2F)cc1` [MM-26, N-[(2,6-Difluoro-phenylthiocarbamoyl)-methyl]-2-(4-methoxy-phenoxy)-acetamide] is 160 to 161 °C.

As to `Cc1ccccc1CNC(=O)CNC(=O)COc1ccc(Br)cc1` [MM-27, 2-(4-Bromo-phenoxy)-N-[(2-methyl-benzylcarbamoyl)-methyl]-acetamide], the melting point lay within 174 to 175 °C. The figure for `O=C(CNC(=O)COc1ccc(Br)cc1)NCc1ccc(Br)cc1` [MM-28, N-[(4-Bromo-benzylcarbamoyl)-methyl]-2-(4-bromo-phenoxy)-acetamide] is 208 to 209 °C; for `O=C(CNC(=O)COc1ccc(Br)cc1)NCc1ccc(Br)cc1F` [MM-29, N-[(4-Bromo-2-fluoro-benzylcarbamoyl)-methyl]-2-(4-bromo-phenoxy)-acetamide] it is 179 to 180 °C. The figure for `COc1ccc(OCC(=O)NCC(=O)Nc2cccc(Br)c2)cc1` [MM-31, N-[(3-Bromo-phenylcarbamoyl)-methyl]-2-(4-methoxy-phenoxy)-acetamide] is 174 to 175 °C. With `O=C(COc1ccc(Br)cc1)NCC(=O)Nc1cccc(Cl)c1` [MM-32, 2-(4-Bromo-phenoxy)-N-[(3-chloro-phenylcarbamoyl)-methyl]-acetamide], the melting point lay within 205 to 206 °C.

For the molecule `O=C(COc1ccc(Br)cc1)NCC(=O)Nc1cccc([N+](=O)[O-])c1` [MM-33, 2-(4-Bromo-phenoxy)-N-[(3-nitro-phenylcarbamoyl)-methyl]-acetamide], the melting point was in the range of 197 to 198 °C. `O=C(COc1ccc(OCc2ccccc2)cc1)NCC(=O)Nc1c(F)cccc1F` [MM-34, 2-(4-Benzyloxy-phenoxy)-N-[(2,6-difluoro-phenylcarbamoyl)-methyl]-acetamide] returned a melting point of 145 to 146 °C. Consider `O=C(COc1ccc(O)cc1)NCC(=O)Nc1c(F)cccc1F` [MM-35, N-[(2,6-difluorophenylcarbamoyl)methyl]-2-(4-hydroxyphenoxy)acetamide], for which the melting point was in the range of 197 to 198 °C. The figure for `Cc1cccc(OCC(=O)NCC(=O)Nc2ccc(I)cc2)c1` [MM-36, N-[(4-Iodo-phenylcarbamoyl)-methyl]-2-m-tolyloxy-acetamide] is 192 to 193 °C; for `Cc1cccc(OCC(=O)NCC(=O)Nc2ccc(O)cc2)c1` [MM-37, N-[(4-hydroxyphenylcarbamoyl)methyl]-2-m-tolyloxyacetamide] it is 186 to 187 °C.

(Values after US9216954B2, “Serine racemase inhibitor” (National University Corporation University of Toyama, priority 2012, dated 2015).)
